The test system of this assay is NCIH929.1 cells. The assay can be described thus: Cell viability assay (CellTiter-Glo 2.0, ATP quantification). Format: cell-based. To be noted: NCIH929.1 cell viability, CellTiter-Glo 2.0, 96 hr incubation, top concentration 1 μM. An outline of the steps:
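Cells seeded at 750/well in RPMI with 10% FBS and 0.05 mM 2-mercaptoethanol, exposed 96 h at 37 °C to 10-point half-log dilutions in duplicate, top 1 μM. Viability by CellTiter-Glo 2.0 ATP luminescence, with a day-0 read as cytostatic baseline (CT0).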
Background: Cellular ATP, detected with luciferase, serves as a proxy for viable cell number.

A value given as a limit tells only on which side of the number the result lay.

As for `CC(C)(C)OC(=O)N1CCC(n2ncc(CNc3cccc4c3C(=O)N(C3CCC(=O)NC3=O)C4=O)c2CC(=O)C2CC2)CC1` (stereo not shown) [Compound 189, tert-Butyl 4-[5-(2-cyclopropyl-2-oxo-ethyl)-4-[[[2-(2,6-dioxo-3-piperidyl)-1,3-dioxo-isoindolin-4-yl]amino]methyl]pyrazol-1-yl]piperidine-1-carboxylate], the GI50 was < 100 nM.

As for `Cc1cccc(-c2nc(CC(=O)N3CCC(n4cc(CNc5cccc6c5C(=O)N(C5CCC(=O)NC5=O)C6=O)cn4)CC3)c(C)o2)c1` (stereo not shown) [Compound 115, 2-(2,6-dioxopiperidin-3-yl)-4-(((1-(1-(2-(5-methyl-2-(m-tolyl)oxazol-4-yl)acetyl)piperidin-4-yl)-1H-pyrazol-4-yl)methyl)amino)isoindoline-1,3-dione], the GI50 is < 100 nM.

For the compound `O=C1CCC(N2C(=O)c3cccc(NCc4cnn(C5CCN(C(=O)CC6CCN(C(=O)C7CCC7)CC6)CC5)c4)c3C2=O)C(=O)N1` (stereo not shown) [Compound 126, 4-(((1-(1-(2-(1-(cyclobutanecarbonyl)piperidin-4-yl)acetyl)piperidin-4-yl)-1H-pyrazol-4-yl)methyl)amino)-2-(2,6-dioxopiperidin-3-yl)isoindoline-1,3-dione], the GI50 is < 100 nM.

For the compound `O=C1CCC(N2C(=O)c3cccc(NCc4cnn(C5CCC(CC6CCCCC6)CC5)c4)c3C2=O)C(=O)N1` (stereo not shown) [Compound 177, 4-(((1-(4-(Cyclohexylmethyl)cyclohexyl)-1H-pyrazol-4-yl)methyl)amino)-2-(2,6-dioxopiperidin-3-yl)isoindoline-1,3-dione], the GI50 is < 100 nM. Turning to `O=C1CCC(N2C(=O)c3cccc(NCc4cnn(C5CCN(C(=O)C6CCCC6)CC5)c4)c3C2=O)C(=O)N1` (stereo not shown) [Compound 32, 4-(((1-(1-(cyclopentanecarbonyl)piperidin-4-yl)-1H-pyrazol-4-yl)methyl)amino)-2-(2,6-dioxopiperidin-3-yl)isoindoline-1,3-dione], the GI50 is < 100 nM.

On to `O=C1CCC(N2C(=O)c3cccc(NCc4cnn(C5CCN(C(=O)CC6CC6)CC5)c4)c3C2=O)C(=O)N1` (stereo not shown) [Compound 26, 4-(((1-(1-(2-cyclopropylacetyl)piperidin-4-yl)-1H-pyrazol-4-yl)methyl)amino)-2-(2,6-dioxopiperidin-3-yl)isoindoline-1,3-dione], for which the GI50 was < 100 nM. The figure for `CC1(C)C[C@@H](n2cc(CNc3cccc4c3C(=O)N(C3CCC(=O)NC3=O)C4=O)cn2)CCN1C(=O)C12C3C4C5C3C1C5C42` (stereo partly drawn) [Compound 197, 4-[[1-[(4S)-1-(Cubane-1-carbonyl)-2,2-dimethyl-4-piperidyl]pyrazol-4-yl]methylamino]-2-(2,6-dioxo-3-piperidyl)isoindoline-1,3-dione] is < 100 nM; for `CC(C)C(=O)N1CCC(n2cc(CNc3cccc4c3C(=O)N(C3CCC(=O)NC3=O)C4=O)cn2)CC1` (stereo not shown) [Compound 9, 2-(2,6-dioxopiperidin-3-yl)-4-(((1-(1-isobutyrylpiperidin-4-yl)-1H-pyrazol-4-yl)methyl)amino)isoindoline-1,3-dione] it is < 100 nM. Then `Cc1oc(-c2cccc(F)c2)nc1CC(=O)N1CCC(n2cc(CNc3cccc4c3C(=O)N(C3CCC(=O)NC3=O)C4=O)cn2)CC1` (stereo not shown) [Compound 105, 2-(2,6-dioxopiperidin-3-yl)-4-(((1-(1-(2-(2-(3-fluorophenyl)-5-methyloxazol-4-yl)acetyl)piperidin-4-yl)-1H-pyrazol-4-yl)methyl)amino)isoindoline-1,3-dione], with < 100 nM; and `CCOC(=O)N1CCC(n2cc(CNc3cccc4c3C(=O)N(C3CCC(=O)NC3=O)C4=O)cn2)CC1` (stereo not shown) [Compound 147, ethyl 4-(4-(((2-(2,6-dioxopiperidin-3-yl)-1,3-dioxoisoindolin-4-yl)amino)methyl)-1H-pyrazol-1-yl)piperidine-1-carboxylate], with < 100 nM.

By GI50 is commonly meant the concentration that inhibits growth by half. A high value points to lower sensitivity of the cells.

Values taken from patent US11753397B2, “Cereblon binders for the degradation of ikaros” (C4 Therapeutics, Inc., priority 2018, dated 2023).
